Assay: xn = mol fraction of the nth substance listed
Details: 101 kPa, Liquid; for viscosity: Capillary tube (Ostwald / Ubbelohde) method; for speed of sound: Frequency=3 MHz, Linear variable-path acoustic interferometer

Cc1ccc(C)cc1 [1,4-dimethylbenzene] + C1COCCO1
Details | speed of sound [m/s] | viscosity [mPa·s]
293.15 K, x2 = 0 | 1328.4 | 0.6505
293.15 K, x2 = 0.0716 | 1326.1 | 0.6921
293.15 K, x2 = 0.1445 | 1324.1 | 0.7358
293.15 K, x2 = 0.2132 | 1322.7 | 0.7779
293.15 K, x2 = 0.2871 | 1321.7 | 0.8239
293.15 K, x2 = 0.3582 | 1321.3 | 0.8691
293.15 K, x2 = 0.4358 | 1321.6 | 0.9192
293.15 K, x2 = 0.5042 | 1322.7 | 0.964
293.15 K, x2 = 0.5846 | 1325 | 1.018
293.15 K, x2 = 0.6543 | 1328.1 | 1.065
293.15 K, x2 = 0.7249 | 1332.5 | 1.113
293.15 K, x2 = 0.7923 | 1338.1 | 1.159
293.15 K, x2 = 0.8623 | 1345.6 | 1.208
293.15 K, x2 = 0.9311 | 1355.2 | 1.257
298.15 K, x2 = 0 | 1307.4 | 0.6115
298.15 K, x2 = 0.0716 | 1305.1 | 0.6484
298.15 K, x2 = 0.1445 | 1303.2 | 0.6871
298.15 K, x2 = 0.2132 | 1301.9 | 0.7245
298.15 K, x2 = 0.2871 | 1300.9 | 0.7654
298.15 K, x2 = 0.3582 | 1300.5 | 0.8054
298.15 K, x2 = 0.4358 | 1300.8 | 0.8499
298.15 K, x2 = 0.5042 | 1301.8 | 0.8898
298.15 K, x2 = 0.5846 | 1304 | 0.9374
298.15 K, x2 = 0.6543 | 1307 | 0.9792
298.15 K, x2 = 0.7249 | 1311.2 | 1.022
298.15 K, x2 = 0.7923 | 1316.6 | 1.064
298.15 K, x2 = 0.8623 | 1323.9 | 1.107
298.15 K, x2 = 0.9311 | 1333.1 | 1.151
303.15 K, x2 = 0 | 1287.3 | 0.5766
303.15 K, x2 = 0.0716 | 1285.1 | 0.6095
303.15 K, x2 = 0.1445 | 1283.2 | 0.644
303.15 K, x2 = 0.2132 | 1281.9 | 0.677
303.15 K, x2 = 0.2871 | 1280.9 | 0.7133
303.15 K, x2 = 0.3582 | 1280.5 | 0.7488
303.15 K, x2 = 0.4358 | 1280.8 | 0.7884
303.15 K, x2 = 0.5042 | 1281.8 | 0.8239
303.15 K, x2 = 0.5846 | 1283.9 | 0.8663
303.15 K, x2 = 0.6543 | 1286.8 | 0.9037
303.15 K, x2 = 0.7249 | 1290.8 | 0.9422
303.15 K, x2 = 0.7923 | 1296 | 0.9792
303.15 K, x2 = 0.8623 | 1303 | 1.018
303.15 K, x2 = 0.9311 | 1311.9 | 1.057
308.15 K, x2 = 0 | 1267.6 | 0.544
308.15 K, x2 = 0.0716 | 1265.4 | 0.5737
308.15 K, x2 = 0.1445 | 1263.6 | 0.605
308.15 K, x2 = 0.2132 | 1262.2 | 0.635
308.15 K, x2 = 0.2871 | 1261.2 | 0.6677
308.15 K, x2 = 0.3582 | 1260.8 | 0.6999
308.15 K, x2 = 0.4358 | 1261 | 0.7358
308.15 K, x2 = 0.5042 | 1261.8 | 0.768
308.15 K, x2 = 0.5846 | 1263.8 | 0.8064
308.15 K, x2 = 0.6543 | 1266.5 | 0.8403
308.15 K, x2 = 0.7249 | 1270.4 | 0.875
308.15 K, x2 = 0.7923 | 1275.4 | 0.9086
308.15 K, x2 = 0.8623 | 1282 | 0.9441
308.15 K, x2 = 0.9311 | 1290.5 | 0.9791
313.15 K, x2 = 0 | 1248.3 | 0.5132
313.15 K, x2 = 0.0716 | 1246.2 | 0.5407
313.15 K, x2 = 0.1445 | 1244.3 | 0.5693
313.15 K, x2 = 0.2132 | 1242.9 | 0.5968
313.15 K, x2 = 0.2871 | 1241.9 | 0.6269
313.15 K, x2 = 0.3582 | 1241.4 | 0.6565
313.15 K, x2 = 0.4358 | 1241.6 | 0.6894
313.15 K, x2 = 0.5042 | 1242.3 | 0.7189
313.15 K, x2 = 0.5846 | 1244.1 | 0.7542
313.15 K, x2 = 0.6543 | 1246.7 | 0.7853
313.15 K, x2 = 0.7249 | 1250.3 | 0.8172
313.15 K, x2 = 0.7923 | 1255 | 0.8479
313.15 K, x2 = 0.8623 | 1261.4 | 0.8802
313.15 K, x2 = 0.9311 | 1269.5 | 0.9126
318.15 K, x2 = 0 | 1229.8 | 0.4862
318.15 K, x2 = 0.0716 | 1227.7 | 0.5116
318.15 K, x2 = 0.1445 | 1225.8 | 0.538
318.15 K, x2 = 0.2132 | 1224.4 | 0.5633
318.15 K, x2 = 0.2871 | 1223.3 | 0.5911
318.15 K, x2 = 0.3582 | 1222.8 | 0.6185
318.15 K, x2 = 0.4358 | 1222.8 | 0.6488
318.15 K, x2 = 0.5042 | 1223.4 | 0.676
318.15 K, x2 = 0.5846 | 1225 | 0.7084
318.15 K, x2 = 0.6543 | 1227.4 | 0.737
318.15 K, x2 = 0.7249 | 1230.8 | 0.7663
318.15 K, x2 = 0.7923 | 1235.2 | 0.7946
318.15 K, x2 = 0.8623 | 1241.3 | 0.8244
318.15 K, x2 = 0.9311 | 1248.9 | 0.854

Cc1cccc(C)c1 [1,3-dimethylbenzene] + C1COCCO1
Details | speed of sound [m/s] | viscosity [mPa·s]
293.15 K, x2 = 0 | 1346.7 | 0.6184
293.15 K, x2 = 0.0938 | 1341.2 | 0.674
293.15 K, x2 = 0.1532 | 1338.2 | 0.7104
293.15 K, x2 = 0.2046 | 1335.9 | 0.7427
293.15 K, x2 = 0.2698 | 1333.4 | 0.7843
293.15 K, x2 = 0.3374 | 1331.4 | 0.8284
293.15 K, x2 = 0.4002 | 1330.1 | 0.8702
293.15 K, x2 = 0.4714 | 1329.3 | 0.9186
293.15 K, x2 = 0.5487 | 1329.6 | 0.9721
293.15 K, x2 = 0.63 | 1331.2 | 1.03
293.15 K, x2 = 0.7182 | 1335 | 1.093
293.15 K, x2 = 0.8035 | 1341 | 1.156
293.15 K, x2 = 0.8708 | 1347.8 | 1.207
293.15 K, x2 = 0.9324 | 1355.8 | 1.254
298.15 K, x2 = 0 | 1323.6 | 0.584
298.15 K, x2 = 0.0938 | 1318.3 | 0.633
298.15 K, x2 = 0.1532 | 1315.4 | 0.6651
298.15 K, x2 = 0.2046 | 1313.2 | 0.6934
298.15 K, x2 = 0.2698 | 1310.8 | 0.7303
298.15 K, x2 = 0.3374 | 1308.8 | 0.7694
298.15 K, x2 = 0.4002 | 1307.6 | 0.8064
298.15 K, x2 = 0.4714 | 1307 | 0.8493
298.15 K, x2 = 0.5487 | 1307.3 | 0.8968
298.15 K, x2 = 0.63 | 1309.1 | 0.948
298.15 K, x2 = 0.7182 | 1312.9 | 1.005
298.15 K, x2 = 0.8035 | 1318.8 | 1.061
298.15 K, x2 = 0.8708 | 1325.5 | 1.106
298.15 K, x2 = 0.9324 | 1333.5 | 1.148
303.15 K, x2 = 0 | 1302.4 | 0.5517
303.15 K, x2 = 0.0938 | 1297.2 | 0.5953
303.15 K, x2 = 0.1532 | 1294.4 | 0.6236
303.15 K, x2 = 0.2046 | 1292.2 | 0.6487
303.15 K, x2 = 0.2698 | 1289.8 | 0.6811
303.15 K, x2 = 0.3374 | 1287.9 | 0.7159
303.15 K, x2 = 0.4002 | 1286.6 | 0.7488
303.15 K, x2 = 0.4714 | 1286 | 0.787
303.15 K, x2 = 0.5487 | 1286.3 | 0.8293
303.15 K, x2 = 0.63 | 1288.1 | 0.875
303.15 K, x2 = 0.7182 | 1291.9 | 0.9258
303.15 K, x2 = 0.8035 | 1297.7 | 0.976
303.15 K, x2 = 0.8708 | 1304.4 | 1.016
303.15 K, x2 = 0.9324 | 1312.2 | 1.054
308.15 K, x2 = 0 | 1282.3 | 0.5229
308.15 K, x2 = 0.0938 | 1277.1 | 0.5621
308.15 K, x2 = 0.1532 | 1274.3 | 0.5875
308.15 K, x2 = 0.2046 | 1272.1 | 0.6101
308.15 K, x2 = 0.2698 | 1269.7 | 0.6392
308.15 K, x2 = 0.3374 | 1267.8 | 0.6706
308.15 K, x2 = 0.4002 | 1266.5 | 0.7002
308.15 K, x2 = 0.4714 | 1265.8 | 0.7347
308.15 K, x2 = 0.5487 | 1266 | 0.773
308.15 K, x2 = 0.63 | 1267.7 | 0.8144
308.15 K, x2 = 0.7182 | 1271.2 | 0.8604
308.15 K, x2 = 0.8035 | 1276.9 | 0.9061
308.15 K, x2 = 0.8708 | 1283.2 | 0.943
308.15 K, x2 = 0.9324 | 1290.7 | 0.9769
313.15 K, x2 = 0 | 1262.3 | 0.4938
313.15 K, x2 = 0.0938 | 1257.2 | 0.5297
313.15 K, x2 = 0.1532 | 1254.3 | 0.553
313.15 K, x2 = 0.2046 | 1252.2 | 0.5737
313.15 K, x2 = 0.2698 | 1249.8 | 0.6005
313.15 K, x2 = 0.3374 | 1247.9 | 0.6291
313.15 K, x2 = 0.4002 | 1246.6 | 0.6563
313.15 K, x2 = 0.4714 | 1245.8 | 0.688
313.15 K, x2 = 0.5487 | 1246 | 0.7231
313.15 K, x2 = 0.63 | 1247.5 | 0.7611
313.15 K, x2 = 0.7182 | 1250.9 | 0.8034
313.15 K, x2 = 0.8035 | 1256.4 | 0.8453
313.15 K, x2 = 0.8708 | 1262.4 | 0.8793
313.15 K, x2 = 0.9324 | 1269.6 | 0.9105
318.15 K, x2 = 0 | 1243 | 0.468
318.15 K, x2 = 0.0938 | 1237.9 | 0.501
318.15 K, x2 = 0.1532 | 1235.1 | 0.5226
318.15 K, x2 = 0.2046 | 1232.9 | 0.5416
318.15 K, x2 = 0.2698 | 1230.5 | 0.5665
318.15 K, x2 = 0.3374 | 1228.5 | 0.5928
318.15 K, x2 = 0.4002 | 1227.2 | 0.6178
318.15 K, x2 = 0.4714 | 1226.4 | 0.647
318.15 K, x2 = 0.5487 | 1226.5 | 0.6794
318.15 K, x2 = 0.63 | 1227.9 | 0.7144
318.15 K, x2 = 0.7182 | 1231.1 | 0.7535
318.15 K, x2 = 0.8035 | 1236.2 | 0.7922
318.15 K, x2 = 0.8708 | 1242 | 0.8232
318.15 K, x2 = 0.9324 | 1248.9 | 0.852
